Data on two compounds can be found in US10376540B2, “Tungsten (VI) salts used to treat infertility, for stimulating fertility and normal reproduction in a non-diabetic female mammal, and for improving the effectiveness of assisted reproduction techniques” (OXOLIFE, S.L., priority 2014, dated 2019).

Several values for one entry are separate records, joined by “and”; a condition that tells them apart may be missing. Equal entries are not always repeated.

Experiment [1] deals with HEC1-A endometrial cell line and JEG-3 trophectoderm cell line. As to the kind of experiment: In vitro endometrial embryonic adhesion study (JEG-3 spheroids on HEC-1A monolayer). The class given is cell-based, human. To be noted: for Absolute adhesion rate / Absolute adhesion rate, Mean: HEC-1A treated 24 hours (sodium tungstate 10 μM); for Absolute adhesion rate: adhesion after 60 minutes; for Embryonic adhesion versus untreated HEC-1A cells (in words): HEC-1A treated 24 hours; for Absolute adhesion rate, Mean: Mean of Exp 1-3, baseline 30%. The text has this: An “in vitro” human-human embryonic adhesion model made up the HEC1-A endometrial cell line and the JEG-3 trophectoderm cell line was used to determine the effect of sodium tungstate on endometrial receptivity.
The use of in vitro models, and specifically the model based on the mentioned cell lines (HEC-1A and JEG-3), is considered a standard model for studying endometrial receptivity and particularly the adhesion the trophoblast to the endometrium (Fertility and Sterility 2011; 96, 522-529; Methods in Enzymology 2006; 420:3-18 or FASEB J. 201; 26:3715-3727).
The JEG-3 cell line which simulates the trophectoderm cells of a human embryo are cells that grow in monolayers in laboratory using low adherence plates and are capable of forming spheroids simulating the human embryo; this is one of the most widely used cell lines for conducting in vitro embryonic adhesion assay.
The cell lines were commercially purchased (American Type Culture Collection (ATCC); Rockville, Md., USA) for conducting the endometrial embryonic adhesion experiments. They were thawed and expanded in 4 passes for obtaining sufficient cells to perform all the assays.
The HEC1-A cells were plated in 24-well plates and cultured with McCoy 5A culture medium supplemented with 10% fetal bovine serum and 0.1% antibiotics (fungizone and penicillin), until reaching 90% confluence. After reaching the confluence, there was added to the culture medium sodium tungstate at a final concentration of 10 μM, as well as Withaferin A (as a control, a compound that prevents embryonic adhesion) or culture medium (baseline adhesion data), without any additional component, for 24 hours.
The JEG-3 cells were plated in low adherent plates with Eagle's minimal essential medium (EMEM) culture medium supplemented with 10% fetal bovine serum and 0.1% antibiotics (fungizone and penicillin). Twenty-four hours before the adhesion assay, the JEG-3 trophoblast spheroids were formed from this culture. To that end, JEG-3 cells in the medium described above were suspended in an Erlenmeyer flask under stirring at a concentration of 6×10^5 cells/6 ml. The resulting spheroids were collected for the adhesion assay.
For the adhesion assay, 24 hours after culturing the HEC-1A cells with culture medium adding sodium tungstate, Withaferin A or without adding any treatment, the culture medium was changed with fresh culture medium without treatments under study. The trophectoderm spheroids were added onto the monolayer of HEC-1A cells, placing 6 to 10 spheroids per well. The adhesion of the spheroids was measured after 60 minutes, counting spheroid that was floating in the culture medium as non-adhered spheroid and spheroid that was not floating as adhered spheroid. The examination was conducted with an inverted microscope (Nikon Diaphot 300; Nikon Corp., Tokyo, Japan). The assay was conducted in triplicate.

In experiment [2] the test system is rats with diabetes and insulinopenia induced by streptozotocin. To be noted: streptozotocin-diabetic females after prolonged treatment (10 weeks), mated with healthy males; non-diabetic 100%; cited from earlier work.
In experiment [3] the test system is IRS2−/− female mice. The experiment can be described thus: Ovulation study: phase of the estrous cycle in vaginal smears (Papanicolau). The class given is in vivo. Set-up: key to Phase of the estrous cycle in vaginal smear: A: Anestrus; D: Diestrus; P: Proestrus; E: Estrus; M: Metestrus. As to conditions: for Phase of the estrous cycle in vaginal smear: individual IRS2−/− female mice, dihydrate. The source says:
The mouse model used for determining the activity of tungsten (VI) salts for favoring normal reproduction and fertility is an Irs2 gene knock-out mouse, IRS2^−/−[Burks et. al., “IRS-2 pathways integrate female reproduction and energy homeostasis”, Nature, 2000, vol. 407, pp. 377-382]. Irs2 gene deletion translates into a clear sexual dimorphism in relation to fertility and carbohydrate metabolism.
The male mice of this model have insulin resistance and severe hyperglycemia that started at an early age. In contrast, the female mice remain relatively euglycemic at an early age and develop slight insulin resistance which remains until a later age (4-5 months). IRS2^−/− female mice at an early age, about 10 weeks old, show a low follicular development and persistent anovulation, accompanied by the absence of estrous cycle in most mice. The pregnancy rate in IRS2^−/− female mice is 9% compared to the rate of 100% in IRS^wt (IRS-2^−/− wild type) female mice. Given that female mice at these ages remain euglycemic and that they only develop slight insulin resistance, the profound impairment in fertility is not a direct result of anomalies in glucose metabolism.
(§1) Ten IRS2^−/− female mice of ages comprised between 6 and 8 weeks. Six “wild-type” (IRS2^wt) male mice of ages comprised between 6 and 8 weeks. The female and male mice were housed separately in normal conditions, i.e., a 12 h light/darkness cycle and controlled temperature and humidity. The animals were fed at will (also referred to as ad libitum) with a standard feed diet.
(§2) After an acclimatization period, the IRS2^−/− female mice were housed in groups of 4-6 mice/cage. Tungstate salt-free drinking water was administered to the animals during the pre-treatment phase (2 weeks).
(§3) Sodium tungstate was administered in the drinking water (ad libitum) by means of a solution of 2 mg/ml of sodium tungstate dihydrate (marketed by Carlo Erba) in distilled water after the pre-treatment phase (day 0 of treatment) and up to 4 weeks before sacrificing the animals. The daily dose of sodium tungstate ingested by the mice was about 180 mg/kg of body weight.
During the pre-treatment period and during the first 3 weeks of treatment, vaginal smears were performed in 6 randomly chosen female mice on days −8; −5; −2; −1; 7; 8; 14; 15 and 22, to determine the phase of the estrous cycle they were in.
Between […] of saline solution was introduced into the vagina of the mice with a Pasteur pipette. Vaginal exudate was collected with the same pipette and spread on a slide. Once air-dried, it was fixed and stained with the Papanicolau technique.
The Papanicolau technique comprises staining the vaginal smears fixed on the slide in the following manner: • 10 immersions in 50% v/v alcohol; • Immersing in Harris hematoxylin solution for 3 minutes; • Rinsing with running water; • 10 immersions in acid alcohol (1% hydrochloric acid); • Rinsing with running water; • 10 immersions in 95% v/v alcohol; • Immersing in OG-6 solution for 30 seconds; • 10 immersions in 96% v/v alcohol; • Immersing in eosin solution for 1 minute; • 10 immersions in 96% v/v alcohol; • 10 immersions in 86% v/v alcohol; and • 10 immersions in xylol
The preparations were analyzed by trained staff using a coding in a single-blind manner for eliminating observer bias.
The samples were identified in the following phases: diestrus, proestrus, estrus, metestrus, anestrus or non-evaluable. The cyclical nature of the four phases in periods of 4 to 6 days are indicative of a normal estrous cycle, whereas the absence of this cyclical nature and the persistence in anestrus, diestrus or proestrus phases are indicative of the absence of estrous cycle.

Experiment [4] concerns IRS2−/− female mice. The experiment can be described thus: Implantation and pregnancy study after cross-breeding with IRS2wt male mice. The class given is in vivo. Here is the method:
as §1, §2, §3
After the first three weeks of treatment, the IRS2^−/− female mice were housed in cages in pairs together with a IRS2^wt male mouse continuously.
The mice were observed daily to look for signs of pregnancy or birth.
After 4 weeks, the male mice were exchanged between the cages and they were kept therein for another 4 weeks.
The administration of tungstate was maintained for 8 weeks in which male and female mice were housed together. After these 8 weeks, treatment was withdrawn and the male and female mice were housed together for 4 additional weeks.
After this period, the female mice were sacrificed and biopsy was carried out to look for indications of pregnancy.
After the cross-breeding period of the method of section B, the female mice were sacrificed and biopsies were carried out to look for indications of pregnancy.

[5] abbreviates: individual treated IRS2−/− female mice, dihydrate.

With `CC1=C(CO)C(=O)O[C@@H]([C@@H](C)[C@H]2CC[C@H]3[C@@H]4C[C@H]5O[C@]56[C@@H](O)C=CC(=O)[C@]6(C)[C@H]4CC[C@]23C)C1` [Withaferin A, reference compound], the Absolute adhesion rate in experiment [1] (Exp 1, baseline 12%) amounted to 0%; in experiment [1] (Exp 2, baseline 48%) it was 0%; in experiment [1] (Exp 3, baseline 31%), 0%. Further, in experiment [1], the “Embryonic adhesion versus untreated HEC-1A cells (in words)” value is “No adhesion whatsoever”. In addition, in experiment [1], the “Absolute adhesion rate, Mean” value came out at 0%.
Take `O.O.[Na+].[Na+].[O]=[W](=[O])([O-])[O-]` [sodium tungstate, sodium tungstate dihydrate]: in experiment [2], the “Percentage of births with respect to the number of positive curettages” value is 66%. For the same compound, the Absolute adhesion rate in experiment [1] (Exp 1, baseline 12%) amounted to 31%; in experiment [1] (Exp 2, baseline 48%), 65%; in experiment [1] (Exp 3, baseline 31%) it was 35%. Besides, the “Embryonic adhesion versus untreated HEC-1A cells (in words)” value in experiment [1] was “higher percentage of embryonic adhesion”. For the same compound, the “Absolute adhesion rate, Mean” value in experiment [1] turned out to be 44%. Moreover, the “Phase of the estrous cycle in vaginal smear” value was “M and E (4×) and E-M” with IRS2−/− female mice [3] (day 7 of treatment, 2 mg/ml sodium tungstate dihydrate in drinking water (about 180 mg/kg/day)); “M and E-M (3×) and E (2×)” in the experiment with IRS2−/− female mice [3] (day 8 of treatment, 2 mg/ml in drinking water); “E and E-M (3×) and D” with IRS2−/− female mice [3] (day 14 of treatment, 2 mg/ml in drinking water); “D and E (2×) and M (2×) and A” with IRS2−/− female mice [3] (day 15 of treatment, 2 mg/ml in drinking water); “D (2×) and A (2×) and M and P” in the experiment with IRS2−/− female mice [3] (day 22 of treatment, 2 mg/ml in drinking water). Moreover, in the experiment on IRS2−/− female mice [3] (on the seventh day of treatment, infertile, non-diabetic IRS2−/− female mice), the “Analyzed mice with recovery of the estrous cycle” value was found to be 100%. In the experiment with IRS2−/− female mice [4] (IRS2−/− female mice treated with tungstate (untreated 9%)), this compound gave a Pregnancy rate of 80%. For the same compound, the Pregnancy entry with IRS2−/− female mice [4] (individual treated IRS2−/− female mice, 2 mg/ml in drinking water, cross-bred with IRS2wt males, dihydrate) is “YES”. In the experiment on IRS2−/− female mice [4] (setting [5]), the “Number of embryos implanted or young born (embryos implanted)” value is 7 embryos (3×) and 6 embryos. The “Number of embryos implanted or young born (young born)” value in the experiment on IRS2−/− female mice [4] (setting [5]) was 3 young and 8 young (2×) and 1 young. Further, in the experiment on IRS2−/− female mice [4] (treated IRS2−/− female mice), the “Mean of young/implanted embryos per pregnant female mouse” value is “about 5”.
